This note sets out measurements from patent publication US5427766A, “Radiolabeled steroids for use in radiochemical-guided surgery” (priority 1993, dated 1995).

Each structure is given as a SMILES string.

A short description of this data set: physchem. The format is physicochemical. Particulars: solid state. On the procedure:
(Z)-Stannyl olefin 4 (25 mg, 41 μmol) was added to 1 mL of chloroform and iodine (10.9 mg, […]) was added with stirring. Rapid decoloration took place and an additional amount of iodine (1 mg) was added which imparted a pink color. Several drops of methanolic potassium fluoride was added which precipitated a tin complex. To the slurry was added 0.5 mL of saturated […] and the organic phase was separated, dried over sodium sulfate and evaporated to give an oil. This material was chromatographed using 2 percent methanol in chloroform on a 1 cm×10 cm flash gel column to give (Z)-iodo olefin 5 (15.3 mg) in 84 percent yield as a white solid.

In general, amount remaining refers to what is left of the initial amount, in per cent. A high value points to greater stability. Compound `CC[C@H]1C[C@@]2(C)[C@@H](CC[C@@]2(O)/C=C\I)[C@@H]2CCc3cc(O)ccc3[C@@H]12` [(Z)-iodo olefin 5, 11β-Ethyl-17α-(Z)-(iodovinyl)estra-3,17β-diol] had an amount remaining at 168 h of 74%. Further, where the note is “a week at 25° C., HPLC 254 nm”, the protodestannylation in product is listed as 3.4 area percent and the “suspect (E)-iodo” value is listed as 10.9 area percent.
